The values that follow come from US7795261B2, “Substituted 1-piperidin-4-yl-4-pyrrolidin-3-yl-piperazine derivatives and their use as neurokinin antagonists” (Janssen Pharmaceutica NV, priority 2002, dated 2010).

Holding throughout (assay type): cell-based
The target of one experiment is NK1 (Homo sapiens, UniProt P25103). Description: Signal transduction (ST), intracellular Ca++ (FLIPR), NK1 antagonistic activity. The settings on record: read-out: pIC50 NK1 (converted). In short, it runs like this: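 Antagonist IC50 was fitted by non-linear regression of peak intracellular Ca++ signals measured on FLIPR after agonist challenge. Beforehand, Fluo3-loaded confluent cells received antagonists over a concentration range for 20 min at room temperature in Ca++ Krebs buffer, pH 7.4.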
NK1, sequence (P25103 whole entry): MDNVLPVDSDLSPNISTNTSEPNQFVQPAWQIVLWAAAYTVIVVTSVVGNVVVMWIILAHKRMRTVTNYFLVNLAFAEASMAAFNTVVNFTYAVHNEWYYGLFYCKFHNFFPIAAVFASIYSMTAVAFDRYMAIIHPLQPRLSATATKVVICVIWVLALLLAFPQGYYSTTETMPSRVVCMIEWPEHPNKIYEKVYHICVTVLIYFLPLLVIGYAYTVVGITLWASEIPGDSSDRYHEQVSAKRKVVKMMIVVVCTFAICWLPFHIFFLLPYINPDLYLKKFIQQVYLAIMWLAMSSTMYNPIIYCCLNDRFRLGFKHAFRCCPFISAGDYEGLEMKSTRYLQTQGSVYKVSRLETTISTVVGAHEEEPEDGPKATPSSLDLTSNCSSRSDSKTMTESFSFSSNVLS

For a further experiment, the target named is T1, NK2 (Homo sapiens, UniProt P21452).
T1 sequence (P21452 1-398): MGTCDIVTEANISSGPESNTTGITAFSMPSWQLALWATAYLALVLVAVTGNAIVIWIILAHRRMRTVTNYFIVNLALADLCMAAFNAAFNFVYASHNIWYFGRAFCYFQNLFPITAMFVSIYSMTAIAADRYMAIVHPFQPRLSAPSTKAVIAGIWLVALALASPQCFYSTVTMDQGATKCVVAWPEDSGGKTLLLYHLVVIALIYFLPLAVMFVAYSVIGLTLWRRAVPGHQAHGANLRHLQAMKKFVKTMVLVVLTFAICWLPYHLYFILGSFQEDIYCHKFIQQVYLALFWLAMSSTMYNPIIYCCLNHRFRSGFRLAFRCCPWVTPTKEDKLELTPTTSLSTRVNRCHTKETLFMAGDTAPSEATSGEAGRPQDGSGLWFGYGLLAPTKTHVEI
In words: Signal transduction (ST), intracellular Ca++ (FLIPR), NK2. Particulars: read-out: pIC50 NK2 (converted). How it is done: [The procedure below names another target; the source lists this target under the same test.] This test evaluates in vitro functional NK1 antagonistic activity. For the measurements of intracellular Ca^++ concentrations the cells were grown on 96-well (black wall/transparent bottom) plates from Costar for 2 days until they reached confluence. The cells were loaded with 2 μM Fluo3 in DMEM containing 0.1% BSA and 2.5 mM probenecid for 1 h at 37° C. They were washed 3× with a Krebs buffer (140 mM NaCl, 1 mM MgCl2×6H2O, 5 mM KCl, 10 mM glucose, 5 mM HEPES; 1.25 mM CaCl2; pH 7.4) containing 2.5 mM probenecid and 0.1% BSA (Ca^++-buffer). The cells were preincubated with a concentration range of antagonists for 20 min at RT and Ca^++-signals after addition of the agonists were measured in a Fluorescence Image Plate Reader (FLIPR from Molecular Devices, Crawley, England). The peak of the Ca^++-transient was considered as the relevant signal and the mean values of corresponding wells were analysed as described below.
The sigmoidal dose response curves were analysed by computerised curve-fitting, using the GraphPad Program. […] For antagonist responses the IC50-value was calculated using non-linear regression.
The last columns indicates—without being limited therefore—for which the compounds might be most suitable. Of course, since for some neurokinin receptors no data was determined, it is obvious that these compounds might be attributed to another suitable use.

In the next experiment the target is T2, NK3 (Homo sapiens, UniProt P29371).
T2 sequence (P29371 1-465): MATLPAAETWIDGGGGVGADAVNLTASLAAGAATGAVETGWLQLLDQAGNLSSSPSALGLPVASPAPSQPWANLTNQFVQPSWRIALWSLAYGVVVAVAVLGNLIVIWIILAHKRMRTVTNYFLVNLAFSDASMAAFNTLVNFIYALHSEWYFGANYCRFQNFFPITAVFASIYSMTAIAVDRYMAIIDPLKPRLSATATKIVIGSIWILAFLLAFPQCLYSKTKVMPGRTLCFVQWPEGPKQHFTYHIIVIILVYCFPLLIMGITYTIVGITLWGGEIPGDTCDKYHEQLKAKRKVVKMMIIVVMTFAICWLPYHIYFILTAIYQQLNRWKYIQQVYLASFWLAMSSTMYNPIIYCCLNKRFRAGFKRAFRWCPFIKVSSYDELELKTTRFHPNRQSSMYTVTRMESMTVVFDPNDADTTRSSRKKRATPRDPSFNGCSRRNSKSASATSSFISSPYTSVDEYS
Description: Signal transduction (ST), intracellular Ca++ (FLIPR), NK3. Particulars: read-out: pIC50 NK3 (converted).

Take `O=C(c1cccc(O)c1)N1CCC(N2CCN([C@H]3CCN(C(=O)c4cc(C(F)(F)F)cc(C(F)(F)F)c4)[C@H](Cc4ccccc4)C3)CC2)C1` (stereo partly shown) [Compound 332]: the IC50 at NK1 was 5.01 nM; on NK2, 1580 nM; at NK3, 3160 nM.

As for `O=C(c1cnccn1)N1CCC(N2CCN(C3CCN(C(=O)c4cc(C(F)(F)F)cc(C(F)(F)F)c4)C(Cc4ccc(Cl)c(Cl)c4)C3)CC2)C1` (stereo not shown) [Compound 171], the IC50 is 6.31 nM at NK1, 794 nM at NK2 and 251 nM at NK3.

In the case of `O=C(c1sccc1CCO)N1CCC(N2CCN([C@H]3CCN(C(=O)c4cc(C(F)(F)F)cc(C(F)(F)F)c4)[C@H](Cc4ccccc4)C3)CC2)C1` (stereo partly shown) [Compound 369], the IC50 was 12.6 nM on NK1, 3980 nM on NK2 and 631 nM at NK3.

Turning to `O=C(c1cc(Cl)sc1Cl)N1CCC(N2CCN([C@H]3CCN(C(=O)c4cc(C(F)(F)F)cc(C(F)(F)F)c4)[C@H](Cc4ccccc4)C3)CC2)C1` (stereo partly shown) [Compound 44], the IC50 on NK1 is 50.1 nM; at NK2 it was 6310 nM; on NK3, 631 nM.

As for `O=C(c1cccs1)N1CC[C@@H](N2CCN([C@H]3CCN(C(=O)c4cc(C(F)(F)F)cc(C(F)(F)F)c4)[C@H](Cc4ccc(Cl)c(Cl)c4)C3)CC2)C1` [Compound 264], the values for the IC50 on NK1, on NK2 and on NK3 were 12.6 nM, 1580 nM and 200 nM, respectively.

Turning to `O=C(C1CCOC1)N1CCC(N2CCN(C3CCN(C(=O)c4cc(C(F)(F)F)cc(C(F)(F)F)c4)C(Cc4ccc(F)c(F)c4)C3)CC2)C1` (single isomer, unassigned) [Compound 285], the IC50 on NK1 was 6.31 nM; at NK2, 3160 nM; at NK3, 631 nM.

`Cc1noc(C)c1S(=O)(=O)N1CCC(N2CCN(C3CCN(C(=O)c4cc(C(F)(F)F)cc(C(F)(F)F)c4)C(Cc4ccccc4)C3)CC2)C1` (stereo not shown) [Compound 79]: the IC50 at NK1 is 15.8 nM; on NK2, 1000 nM; on NK3, 501 nM.

Turning to `O=C(C1CC1)N1CCC(N2CCN([C@H]3CCN(C(=O)c4cc(C(F)(F)F)cc(C(F)(F)F)c4)[C@H](Cc4ccc(Cl)c(Cl)c4)C3)CC2)C1` (relative stereo) [Compound 162], the figures for the IC50 at NK1, at NK2 and at NK3 were 10 nM, 1000 nM and 501 nM, respectively.

On to `O=C(c1cc(CCO)cs1)N1CCC(N2CCN([C@H]3CCN(C(=O)c4cc(C(F)(F)F)cc(C(F)(F)F)c4)[C@H](Cc4ccccc4)C3)CC2)C1` (stereo partly shown) [Compound 363], for which the IC50 is 12.6 nM on NK1, 3980 nM on NK2 and 1580 nM on NK3.

Consider `COc1ccc(OC)c(S(=O)(=O)N2CCC(N3CCN([C@H]4CCN(C(=O)c5cc(C(F)(F)F)cc(C(F)(F)F)c5)[C@H](Cc5ccccc5)C4)CC3)C2)c1` (stereo partly shown) [Compound 411], for which the IC50 on NK1 is 20 nM; on NK2 it was 2510 nM; on NK3, 1000 nM.

As for `O=C(c1ccccc1Cl)N1CCC(N2CCN([C@H]3CCN(C(=O)c4cc(C(F)(F)F)cc(C(F)(F)F)c4)[C@H](Cc4ccc(Cl)c(Cl)c4)C3)CC2)C1` (relative stereo) [Compound 164], the IC50 on NK1 is 15.8 nM; on NK2, 79.4 nM; at NK3, 398 nM.

As to `O=C(C1CCCCN1C(=O)c1ccccc1Cl)N1CCC(N2CCN(C3CCN(C(=O)c4cc(C(F)(F)F)cc(C(F)(F)F)c4)C(Cc4ccccc4)C3)CC2)C1` (stereo not shown) [Compound 295], the IC50 at NK1 is 15.8 nM; at NK2, 2000 nM; at NK3 it was 316 nM.

Turning to `Cc1cc(C(=O)N2CCC(N3CCN([C@H]4CCN(C(=O)c5cc(C(F)(F)F)cc(C(F)(F)F)c5)[C@H](Cc5ccccc5)C4)CC3)C2)no1` (stereo partly shown) [Compound 46], the IC50 was 31.6 nM at NK1, 3980 nM at NK2 and 1260 nM at NK3.

Turning to `CN(C(=O)C1CC1)C(C)(C)C(=O)N1CCC(N2CCN(C3CCN(C(=O)c4cc(C(F)(F)F)cc(C(F)(F)F)c4)C(Cc4ccccc4)C3)CC2)C1` (stereo not shown) [Compound 310], the IC50 is 7.94 nM on NK1, 2000 nM at NK2 and 3980 nM at NK3.

For `Cc1nc(S(=O)(=O)N2CCC(N3CCN([C@H]4CCN(C(=O)c5cc(C(F)(F)F)cc(C(F)(F)F)c5)[C@H](Cc5ccccc5)C4)CC3)C2)cn1C` (stereo partly shown) [Compound 78], the IC50 on NK1 was 31.6 nM; on NK2, 398 nM; at NK3, 251 nM.

In the case of `O=C(c1ccccc1Cl)N1CC[C@H](N2CCN([C@H]3CCN(C(=O)c4cc(C(F)(F)F)cc(C(F)(F)F)c4)[C@H](Cc4ccc(Cl)c(Cl)c4)C3)CC2)C1` [Compound 315], the IC50 was 5.01 nM at NK1, 501 nM on NK2 and 631 nM on NK3.

As to `O=C(C1CCCCN1)N1CCC(N2CCN(C3CCN(C(=O)c4cc(C(F)(F)F)cc(C(F)(F)F)c4)C(Cc4ccccc4)C3)CC2)C1` (stereo not shown) [Compound 294], the results for the IC50 on NK1 and on NK2 were 20 nM and 7940 nM, respectively.

Consider `O=C(c1cc(C(F)(F)F)cc(C(F)(F)F)c1)N1CC[C@H](N2CCN(C3CCN(S(=O)(=O)c4ccc(CCOCc5ccccc5)s4)C3)CC2)C[C@H]1Cc1ccccc1` (stereo partly shown) [Compound 336], for which the IC50 on NK1 was 158 nM; on NK2, 1000 nM.

Turning to `O=C(c1cc(C(F)(F)F)cc(C(F)(F)F)c1)N1CC[C@H](N2CCN(C3CCN(S(=O)(=O)c4ccc(COCc5ccccc5)s4)C3)CC2)C[C@H]1Cc1ccccc1` (stereo partly shown) [Compound 345], the IC50 on NK1 is 200 nM; at NK2, 501 nM.

With `O=C(c1cccnc1)N1CCC(N2CCN([C@H]3CCN(C(=O)c4cc(C(F)(F)F)cc(C(F)(F)F)c4)[C@H](Cc4ccccc4)C3)CC2)C1` (stereo partly shown) [Compound 28], the IC50 at NK1 is 50.1 nM; on NK2 it was 2510 nM.

On to `COc1ccc(C(O)C(=O)N2CCC(N3CCN([C@H]4CCN(C(=O)c5cc(C(F)(F)F)cc(C(F)(F)F)c5)[C@H](Cc5ccccc5)C4)CC3)C2)cc1` (stereo partly shown) [Compound 333], for which the IC50 at NK1 is 20 nM; on NK2 it was 2510 nM.

Consider `O=C(c1cc(C(F)(F)F)cc(C(F)(F)F)c1)N1CCC(N2CCN(C3CCN(S(=O)(=O)c4cc(CCOCc5ccccc5)cs4)C3)CC2)CC1Cc1ccccc1` (stereo not shown) [Compound 335], for which the values for the IC50 on NK1 and at NK2 were 316 nM and 1000 nM, respectively.

For `O=C(c1cc(C(F)(F)F)cc(C(F)(F)F)c1)N1CC[C@H](N2CCN(C3CCN(S(=O)(=O)c4occc4CCOCc4ccccc4)C3)CC2)C[C@H]1Cc1ccccc1` (stereo partly shown) [Compound 410], the figures for the IC50 on NK1 and on NK2 were 50.1 nM and 1260 nM, respectively.

Take `O=C(c1cc(C(F)(F)F)cc(C(F)(F)F)c1)N1CC[C@H](N2CCN([C@@H]3CCNC3)CC2)C[C@H]1Cc1ccc(Cl)c(Cl)c1` [Compound 262]: the IC50 was 6.31 nM on NK1 and 501 nM on NK2.

For `Cn1cc(C(=O)N2CCC(N3CCN([C@H]4CCN(C(=O)c5cc(C(F)(F)F)cc(C(F)(F)F)c5)[C@H](Cc5ccccc5)C4)CC3)C2)ccc1=O` (stereo partly shown) [Compound 29], the IC50 at NK1 is 79.4 nM; on NK2, 2000 nM.

Turning to `CC(C)N/C(=N\C#N)N1CCC(N2CCN(C3CCN(C(=O)c4cc(C(F)(F)F)cc(C(F)(F)F)c4)C(Cc4ccccc4)C3)CC2)C1` (stereo not shown) [Compound 344], the IC50 at NK1 is 20 nM; on NK2 it was 3980 nM.

For `O=C(c1cc(C(F)(F)F)cc(C(F)(F)F)c1)N1CC[C@H](N2CCN(C3CCN(Cc4nc5ccccc5[nH]4)C3)CC2)C[C@H]1Cc1ccccc1` (stereo partly shown) [Compound 10], the IC50 at NK1 was 100 nM; on NK3, 6310 nM.
